Experimental findings from patent US20240376094A2, “SELECTIVE BCL-XL PROTAC COMPOUNDS AND METHODS OF USE” (Les Laboratoires Servier, priority 2021, published 2024) are described below.

One may read the GI50 as the concentration giving 50% growth inhibition. A word on the IC50: it is the point on the concentration scale where inhibition reaches its midpoint. Read a low IC50 as higher potency.

Common to all, as to format: cell-based
The test system of assay [1] is EBC-1 lung cancer cell line. Put plainly: EBC-1 cell proliferation, CellTiter-Glo assay. The following applies: Homo sapiens, 120 h; Ebc-1 cell viability, CTG assay, 5 days of treatment; read-out: CTG 5 day Ebc1 GI50. The method, then:
(§1) The ability of the BCL-xL degrader low molecular weight compounds to inhibit cell proliferation and survival was assessed using the Promega CellTiter-Glo® proliferation assay on the EBC-1 lung cancer cell line (RCB1965, obtained from RIKEN.) The cells were cultured in media that is optimal for their growth at 5% CO2, 37° C. in a tissue culture incubator. Prior to seeding for the proliferation assay, the cells were split at least 2 days before the assay to ensure optimal growth density. On the day of seeding, cells were lifted off tissue culture flasks using 0.25% trypsin. Cell viability and cell density were determined using a cell counter (Vi-Cell XR Cell Viability Analyzer, Beckman Coulter). Cells with higher than 85% viability were seeded in white clear bottom 384-well plates (Greiner cat #781098) at a density of 1000 cells per well in 50 μL of standard growth media. Plates were incubated at 37° C. overnight in a tissue culture incubator.
The BCL-xL degrader low molecular weight compounds were prepared to desired concentrations. A series of 10 dilutions were made for each prepared compound. The prepared compounds were then added to the cells resulting in final concentrations of 0.508 nM-10 μM. An acoustic transfer device (Echo555, Beckman Coulter) was used to add the compounds to the cells. Each treatment was tested in triplicate assay plates. Plates were incubated at 37° C. overnight or for 5 days in a tissue culture incubator. The ability of the compounds to inhibit cell proliferation and survival was assessed using the Promega CellTiter-Glo® proliferation assay. Plates were incubated at room temperature for 20 minutes to stabilize luminescent signals prior to reading using a multimode plate reader (PHERAstar FSX Microplate Reader, BMG Labtech).
To evaluate the effect of the compound treatments, luminescent counts of untreated cells were taken the day after seeding (Day 0 readings), and after 5 days of treatment (Day 5 readings). The Day 5 readings of the untreated cells were compared to the Day 0 readings. Assays with at least one cell doubling during the incubation period were considered valid. To evaluate the effect of the drug treatments, luminescent counts from wells containing untreated cells (100% viability) were used to normalize treated samples. The concentrations of treatment required to inhibit 50% of cell growth or survival ([…]) were calculated using a four parameter logistic regression equation.
Background: Cellular ATP, detected with luciferase, serves as a proxy for viable cell number.

Another assay concerns the target T1, HiBiT-tagged BCL-xL (Homo sapiens, UniProt Q07817).
T1 construct: expressed in transfected cells; host or cells: NCI-H1650 (ATCC No. CRL-5883), engineered HiBiT cell line
Put plainly: NCI-H1650 BCL-xL protein levels, Nano-Glo HiBiT Lytic Detection. The settings on record: NCI-H1650 expressing HiBiT-tagged BCL-xL, overnight incubation, read-out: Bcl-xl HIBIT NCIH1650 DC50. Here is the method:
as §1, with “degrade BCL-xL protein” for “inhibit cell proliferation and survival”, “Nano-Glo® HiBiT Lytic Detection System. The NCI-H1650 (ATCC No. CRL-5883) was engineered to express HiBiT-tagged BCL-xL. The NCI-H1650 HiBiT” for “CellTiter-Glo® proliferation assay on the EBC-1 lung cancer”, “was” for “(RCB1965, obtained from RIKEN.) The cells were”, “protein level” for “proliferation”, “5000” for “1000”, “30” for “50”
The BCL-xL degrader low molecular weight compounds were prepared to desired concentrations. A series of 10 dilutions were made for each prepared compound. The prepared compounds were then added to the cells resulting in final concentrations of 0.508 nM-10 μM. An acoustic transfer device (Echo555, Beckman Coulter) was used to add the compounds to the cells. Each treatment was tested in triplicate assay plates. Plates were incubated at 37° C. overnight in a tissue culture incubator.
BCL-xL degradation was assessed through the addition of 30 μL of Nano-Glo® HiBiT Lytic Reagent (Promega, cat #N3040), a reagent which lyses cells and contains a furimazine substrate and the large subunit (LgBiT) used in NanoLuc® Binary Technology. The LgBiT subunit having high affinity to a HiBiT-tagged protein will bind HiBiT, if present, resulting in complex formation of a luminescent NanoBiT® enzyme. This reaction will emit a luminescent signal proportional to the amount of HiBiT-tagged BCL-xL present in the cell lysate. Plates were incubated at room temperature for 20 minutes to stabilize luminescent signals prior to reading using a luminescence reader (PHERAstar FSX Microplate Reader, BMG Labtech).
To evaluate the effect of the drug treatments, luminescent counts from wells containing untreated cells (100% HiBiT-tagged BCL-xL) were used to normalize treated samples. The concentrations of treatment required to inhibit 50% were calculated using a four parameter logistic regression equation.
Background: HiBiT is a short tag that completes a luciferase, so light tracks the accessible tagged protein.

The subject of a further assay is MOLT-4 cells. Put plainly: MOLT-4 cell viability, CTG assay. The following applies: Homo sapiens, MOLT-4, 48 h. An outline of the steps: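 Cells grown in RPMI 1640 with 10% FBS at 37° C, 5% CO2, then exposed to compounds for 48 h (11-point 5-fold dilution, triplicates). ATP measured by CellTiter-Glo luminescence; IC50 from four-parameter fit versus control, mean of ≥2 independent experiments.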

The next assay deals with T2, Bcl-xL (Homo sapiens, UniProt Q07817).
T2 construct: Measured levels of Bcl-xL protein of HCT116 cells treated with the tested compounds; host or cells: HCT116
Put plainly: HCT116 Bcl-xL degradation, capillary-based immunoassay (WES). The settings on record: HCT116, 24 h, 9-point serial dilution. An outline of the steps: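 HCT116 cells treated 24 h with compound at 10/100 nM and/or 9-point dilution (quadruplicates), then lysed. Bcl-xL measured by capillary WES immunoassay, normalized to cofilin and expressed as % of untreated cells. DC50 from four-parameter curve fit.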

T1 sequence (Q07817 whole entry): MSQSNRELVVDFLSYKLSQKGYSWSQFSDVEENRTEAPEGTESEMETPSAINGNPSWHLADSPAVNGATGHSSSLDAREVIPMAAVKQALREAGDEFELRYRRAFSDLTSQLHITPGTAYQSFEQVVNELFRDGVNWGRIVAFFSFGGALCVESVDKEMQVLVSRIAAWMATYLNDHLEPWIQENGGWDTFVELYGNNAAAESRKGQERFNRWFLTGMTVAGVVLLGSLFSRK
T2 sequence (Q07817 whole entry): as above

Regarding `Cc1ncsc1-c1ccc([C@H](C)NC(=O)[C@@H]2C[C@@H](O)CN2C(=O)[C@@H](NC(=O)CCOCCOCCOCCNC(=O)c2nc(N3CCCc4c3nnc(Nc3nc5ccccc5s3)c4C)ccc2-c2cnn(CC34CC5(C)CC(C)(C3)CC(OCCN3CCCC3)(C5)C4)c2C)C(C)(C)C)cc1` [Example 159, 6-(3-(benzo[d]thiazol-2-ylamino)-4-methyl-6,7-dihydropyrido[2,3-c]pyridazin-8(5H)-yl)-3-(1-(((1r,3R,5S,7s)-3,5-dimethyl-7-(2-(pyrrolidin-1-yl)ethoxy)adamantan-1-yl)methyl)-5-methyl-1H-pyrazol-4-yl)-N—((S)-14-((2S,4R)-4-hydroxy-2-(((S)-1-(4-(4-methylthiazol-5-yl)phenyl)ethyl)carbamoyl)pyrrolidine-1-carbonyl)-15,15-dimethyl-12-oxo-3,6,9-trioxa-13-azahexadecyl)picolinamide], the GI50 in assay [1] is 8 nM. Besides, the DC50 on HiBiT-tagged BCL-xL is over 1670 nM.

For the compound `Cc1ncsc1-c1ccc([C@H](C)NC(=O)[C@@H]2C[C@@H](O)CN2C(=O)C(NC(=O)CCCCCCCCN(C)C(=O)c2nc(N3CCCc4c3nnc(Nc3nc5ccccc5s3)c4C)ccc2-c2cnn(CC34CC5(C)CC(C)(C3)CC(OCCN3CCCC3)(C5)C4)c2C)C(C)(C)C)cc1` (stereo partly drawn) [Example 161, 6-(3-(benzo[d]thiazol-2-ylamino)-4-methyl-6,7-dihydropyrido[2,3-c]pyridazin-8(5H)-yl)-3-(1-(((1r,3R,5S,7s)-3,5-dimethyl-7-(2-(pyrrolidin-1-yl)ethoxy)adamantan-1-yl)methyl)-5-methyl-1H-pyrazol-4-yl)-N-(9-(((S)-1-((2S,4R)-4-hydroxy-2-(((S)-1-(4-(4-methylthiazol-5-yl)phenyl)ethyl)carbamoyl)pyrrolidin-1-yl)-3,3-dimethyl-1-oxobutan-2-yl)amino)-9-oxononyl)-N-methylpicolinamide], the GI50 in assay [1] was 8 nM. For the same compound, at HiBiT-tagged BCL-xL, the DC50 worked out at 0.4 nM.

With `Cc1ncsc1-c1ccc([C@H](C)NC(=O)[C@@H]2C[C@@H](O)CN2C(=O)[C@@H](NC(=O)C[C@H]2CC[C@@H](NC(=O)c3nc(N4CCCc5c4nnc(Nc4nc6ccccc6s4)c5C)ccc3-c3cnn(CC45CC6(C)CC(C)(C4)CC(OCCN4CCCC4)(C6)C5)c3C)CC2)C(C)(C)C)cc1` [Example 163, 6-(3-(benzo[d]thiazol-2-ylamino)-4-methyl-6,7-dihydropyrido[2,3-c]pyridazin-8(5H)-yl)-3-(1-(((1r,3R,5S,7s)-3,5-dimethyl-7-(2-(pyrrolidin-1-yl)ethoxy)adamantan-1-yl)methyl)-5-methyl-1H-pyrazol-4-yl)-N-((1R,4S)-4-(2-(((S)-1-((2S,4R)-4-hydroxy-2-(((S)-1-(4-(4-methylthiazol-5-yl)phenyl)ethyl)carbamoyl)pyrrolidin-1-yl)-3,3-dimethyl-1-oxobutan-2-yl)amino)-2-oxoethyl)cyclohexyl)picolinamide], the GI50 in assay [1] is 22 nM. In addition, the DC50 on HiBiT-tagged BCL-xL stood at 6 nM.

On to `CN[C@@H](C)C(=O)N[C@H](C(=O)N1CCC[C@H]1c1nc(C(=O)c2cccc(OCCCCCCCCCCCCN(C)CCOC34CC5(C)CC(C)(CC(Cn6ncc(-c7ccc(N8CCCc9c8nnc(Nc8nc%10ccccc%10s8)c9C)nc7C(=O)O)c6C)(C5)C3)C4)c2)cs1)C1CCCCC1` [Example 96, 6-[3-(1,3-benzothiazol-2-ylamino)-4-methyl-6,7-dihydro-5H-pyrido[2,3-c]pyridazin-8-yl]-3-[1-[[3-[2-[12-[3-[2-[(2S)-1-[(2S)-2-cyclohexyl-2-[[(2S)-2-(methylamino)propanoyl]amino]acetyl]pyrrolidin-2-yl]thiazole-4-carbonyl]phenoxy]dodecyl-methyl-amino]ethoxy]-5,7-dimethyl-1-adamantyl]methyl]-5-methyl-pyrazol-4-yl]pyridine-2-carboxylic acid], for which, in the assay on MOLT-4 cells, the IC50 turned out to be 4.36 nM. This compound also showed a DC50 at Bcl-xL of over 316 nM.

`Cc1c(Nc2nc3ccccc3s2)nnc2c1CCCN2c1ccc(-c2cnn(CC34CC5(C)CC(C)(C3)CC(OCCN(C)CCCCCCCCCCCCCCOc3ccc6c(c3)C(=O)N(C3CCC(=O)NC3=O)C6=O)(C5)C4)c2C)c(C(=O)O)n1` (centres unmarked) [Example 142, 6-[3-(1,3-benzothiazol-2-ylamino)-4-methyl-6,7-dihydro-5H-pyrido[2,3-c]pyridazin-8-yl]-3-[1-[[3-[2-[14-[2-(2,6-dioxo-3-piperidyl)-1,3-dioxo-isoindolin-5-yl]oxytetradecyl-methyl-amino]ethoxy]-5,7-dimethyl-1-adamantyl]methyl]-5-methyl-pyrazol-4-yl]pyridine-2-carboxylic acid] showed an IC50 in the assay on MOLT-4 cells of 3.76 nM. For the same compound, the DC50 at Bcl-xL was determined as 0.341 nM.

`CN[C@@H](C)C(=O)N[C@H](C(=O)N1CCC[C@H]1c1nc(C(=O)c2cccc(OCCCCCCCCCCN(C)CCOC34CC5(C)CC(C)(CC(Cn6ncc(-c7ccc(N8CCCc9c8nnc(Nc8nc%10ccccc%10s8)c9C)nc7C(=O)O)c6C)(C5)C3)C4)c2)cs1)C1CCCCC1` [Example 98, 6-[3-(1,3-benzothiazol-2-ylamino)-4-methyl-6,7-dihydro-5H-pyrido[2,3-c]pyridazin-8-yl]-3-[1-[[3-[2-[10-[3-[2-[(2S)-1-[(2S)-2-cyclohexyl-2-[[(2S)-2-(methylamino)propanoyl]amino]acetyl]pyrrolidin-2-yl]thiazole-4-carbonyl]phenoxy]decyl-methyl-amino]ethoxy]-5,7-dimethyl-1-adamantyl]methyl]-5-methyl-pyrazol-4-yl]pyridine-2-carboxylic acid] returned an IC50 in the assay with MOLT-4 cells of 4.74 nM. The same compound gave a DC50 at Bcl-xL of 0.362 nM.

In the case of `Cc1c(Nc2nc3ccccc3s2)nnc2c1CCCN2c1ccc(-c2cnn(CC34CC5(C)CC(C)(C3)CC(OCCN(C)CCCCCCCC(=O)N3CCC(c6ccc7c(c6)CN(C6CCC(=O)NC6=O)C7=O)CC3)(C5)C4)c2C)c(C(=O)O)n1` (centres unmarked) [Example 68, 6-[3-(1,3-benzothiazol-2-ylamino)-4-methyl-6,7-dihydro-5H-pyrido[2,3-c]pyridazin-8-yl]-3-[1-[[3-[2-[[8-[4-[2-(2,6-dioxo-3-piperidyl)-1-oxo-isoindolin-5-yl]-1-piperidyl]-8-oxo-octyl]-methyl-amino]ethoxy]-5,7-dimethyl-1-adamantyl]methyl]-5-methyl-pyrazol-4-yl]pyridine-2-carboxylic acid], the IC50 with MOLT-4 cells was 15.3 nM. Further, on Bcl-xL, the DC50 was over 316 nM.
